These results are taken from patent US11680264B2, “Methods of modulating melanosome pH and melanin level in cells” (Cornell University, priority 2016, dated 2023).

The subject of one data set is PKA targeted proteins. As to the kind of experiment: Western blot of PKA substrate phosphorylation. The data set is classed as cell-based. To be noted: mouse and human melanocytes, 4 hours.
In data set [1] the test system is human melanocytes. As to the kind of experiment: DAMP melanosome pH assay (HMB45 co-staining). The data set is classed as cell-based. To be noted: for melanosome pH (DAMP), substance alone: 4 hours, KH7 30 μM, cAMP 500 μM, H89 10 μM, ESI-09 10 μM. On the procedure:
(§1) N-{3-[(2,4-dinitrophenyl)amino]propyl}-N-(3-aminopropyl)methylamine dihydrochloride (DAMP) is a weakly basic amine that is taken up in acidic organelles of live cells and which has been used to measure melanosome pH (Bin et al., PLOS One, 10(6):e0129273 (2015); Tabata et al., Cell Tissue Res., 332(3): 447-460 (2008)). Cells were cultured on sterile glass coverslips in 24-mm wells at 50×10^3 cells/coverslip. […] After permeabilization with 0.1% Triton X-100 in Buffer A at −20° C., the cells were labeled with the supplied anti-DNP antibody (Oxford Biomedical Research) according to kit protocol. Melanosomes were identified using the monoclonal antibody (anti-HMB45, 1:40, Santa Cruz Biotechnology). Fluorescence was detected after secondary staining with Alexa Fluor 546 donkey anti-goat IgG antibody (Invitrogen) and Alexa Fluor 647 donkey anti-mouse IgG antibody (Invitrogen). All quantitative analyses were performed using the Object Count tool in Nikon AR 4.60. For each image, the lower intensity threshold limit of each fluorescence channel was defined as the intensity of the dimmest punctum returned using the 3 points circle threshold tool. The upper intensity threshold limit was set to the maximum value. Equivalent diameter (EqDiameter) was restricted to 1.85-30.00 pixels. Circularity was restricted to 0.20-1.00. Mean fluorescence intensity was measured for all DAMP^+ puncta. Melanosomes were identified as HMB45^+ puncta. DAMP measurements were only recorded when colocalized with HMB45. Frequency distributions were generated for each sample from mean DAMP fluorescence intensity of DAMP^+ melanosomes. All analyses were performed on two replicate coverslips (n≥15 cells per coverslip). Melanosomes were first identified as TRP1^+ or tyrosinase^+ puncta. sAC^+ melanosomes were identified as R52^+ or R21^+ puncta colocalizing with TRP1^+ or tyrosinase^+ puncta. The degree of colocalization between sAC and melanosomes was calculated as the number of sAC+ melanosomes divided by the total number of melanosomes and expressed as a percentage.
The effect of sAC inhibition on melanosome pH was also assessed in human melanocytes.

The test system of data set [2] is sAC^KO mouse melanocytes. In words: DAMP melanosome pH assay (HMB45 co-staining). The data set is classed as cell-based. To be noted: 4 hours; for effect on cAMP-dependent rescue of melanosome pH (DAMP): co-incubation with cAMP [Sp-8-CPT-cAMPs], 10 μM; for melanosome pH (DAMP), substance alone: KH7 30 μM, cAMP analogs 500 μM, ESI-09 10 μM, MSH 100 nM. On the procedure: as §1
(§2) The effect of pharmacologic inhibition of sAC was also measured using the DAMP assay described above. Briefly, Cells were cultured on sterile glass coverslips in 24-mm wells at 50×10^3 cells/coverslip and treated or not treated for 4 hours with 30 μM KH7 or LRE1. […] After permeabilization with 0.1% Triton X-100 in Buffer A at −20° C., the cells were labeled with the supplied anti-DNP antibody (Oxford Biomedical Research) according to kit protocol. Melanosomes were identified using the monoclonal antibody (anti-HMB45, 1:40, Santa Cruz Biotechnology). Fluorescence was detected after secondary staining with Alexa Fluor 546 donkey anti-goat IgG antibody (Invitrogen) and Alexa Fluor 647 donkey anti-mouse IgG antibody (Invitrogen). All images were acquired using a Zeiss LSM 880 and analyzed using NIS-Elements AR 4.60 (Nikon).

Data set [3] has as its system sAC^FF mouse melanocytes. In words: DAMP melanosome pH assay (HMB45 co-staining). The data set is classed as cell-based. To be noted: sAC^FF mouse melanocytes; for melanosome pH (DAMP uptake at HMB45 positive melanosomes), substance alone: 4 hours, KH7 30 μM, cAMP 500 μM, H89 10 μM, PKI 10 μM, ESI-09 10 μM. On the procedure: as §1, §2
Data set [4] deals with human melanocytes. In words: Cellular eumelanin content. The data set is classed as cell-based. To be noted: 48 hours, KH7 30 μM, ESI-09 10 μM. On the procedure: (§3) FIGS. 15A-15J provide the results of experiments analyzing the effect of sAC activity on melanin production. FIG. 15A is a graph illustrating the cellular eumelanin and pheomelanin content in sAC^FF (FF) and sAC^KO (KO) mouse melanocytes. Numbers above bars represent the ratio of pheomelanin to eumelanin. Average of triplicate determinations. FIG. 15B is a graph illustrating the cellular eumelanin content of sAC^FF and sAC^KO mouse melanocytes grown for 96 hours in the absence (−, DMSO) or presence of KH7 (+, 30 μM). Average of triplicate determinations. FIG. 15C is a graph illustrating the fold over baseline cellular eumelanin level of human melanocytes (n=8) treated with KH7 (30 μM) or vehicle (DMSO) for 48 hours. All assays performed in triplicate. Students t-test **P<0.01, ****P<0.0001. FIG. 15D is images of cell pellets of sAC^FF and sAC^KO mouse melanocytes. FIG. 15E is a graph of the melanin levels of pairs of sAC^FF and sAC^KO mouse melanocytes. FIGS. 15F and 15G are images of cell pellets of sAC^FF mouse melanocytes grown in the absence (DMSO, FIGS. 15G and 15F, left panels) or presence of KH7 (FIG. 15G, 30 μM, right panel) or LRE1 (FIG. 15F, 50 μM, right panel) for 96 hours. FIG. 15H is images of cell pellets of human melanocytes (C226, C38) treated with vehicle control (DMSO, left) or KH7 (30 μM, right) for 48 hours. FIG. 15I is images of cell pellets of human melanocytes (C226) treated with vehicle control (DMSO, left) or ESl-09 (10 μM, right) for 48 hours. FIG. 15J is a graph illustrating the fold over baseline cellular (eumelanin) level of human melanocytes treated with ESl-09 (10 μM) or vehicle (DMSO) for 48 hours (n=3, distinct human cell lines). For FIGS. 15E and 15J Students t-test, *p<0.05, **p<0.01, ****p<0.0001.

Data set [5] relates to sAC^KO mouse melanocytes. In words: Cellular eumelanin content. The data set is classed as cell-based. To be noted: 96 hours. As to the method: as §3
Data set [6] deals with sAC^FF mouse melanocytes. As to the kind of experiment: Cellular eumelanin content. To be noted: KH7 30 μM or LRE1 50 μM, 96 hours. The data set is classed as cell-based. On the procedure:
as §3

For data set [7], the system named is C3H/HeJ mice. As to the kind of experiment: Topical treatment of epilated back skin, hair pigmentation. The data set is classed as in vivo, mouse. On the procedure: Therefore, experiments were performed to determine whether inhibition of sAC in animals could alter hair pigmentation. Animal experiments were performed in accordance with approved Institutional Animal Care and Use Committee protocol at Weill Cornell Medicine. Age and gender matched C3H/HeJ mice (female, 7 weeks old) were purchased from The Jackson Laboratory. For the analysis of hair pigmentation, the upper and lower dorsum of each mouse were epilated using hair removal wax. 10 μl of KH7 (42 mg/ml in DMSO), LRE1 (28 mg/ml in DMSO) or DMSO (vehicle control) was topically applied onto the upper back and DMSO was applied to the lower back three times a day over two weeks. These mice were monitored for changes in coat color as the epilated hair grew back. Hair was removed from each treated area after 3 weeks to measure the length of the total hair, apical black tip and subapical agouti (pheomelanin) band under a stereo microscope. Mice were euthanized and the treated skin was submitted to a blinded animal pathologist for histological evaluation of the epidermis and hair follicles. This experiment was performed twice with 3-4 mice per cohort (total n=6-7)

The test system of data set [8] is C3H/HeJ mice. In words: Topical treatment of ear, epidermal pigmentation (Fontana Masson). The data set is classed as in vivo, mouse. To be noted: topical on right ear, twice a day for two weeks. As to the method: Melanocytes also exist in the epidermis at specific areas of mouse skin (e.g., pinnae) (Nordlund et al., Dermatol Clin., 4(3): 407-418 (1986)); thus, these areas were studied to examine the role of sAC in epidermal pigmentation. For analysis of epidermal pigmentation, using C3H/HeJ mice as above, 20 μl of KH7 ([…]), LRE1 (28 mg/ml) or DMSO (vehicle control) was topically applied on the right ear and DMSO was topically applied on the left ear twice a day for two weeks. Ear skin was monitored daily for irritation and changes in pigmentation. After two weeks, mice were euthanized and the treated skin was submitted to a blinded animal pathologist for histological evaluation of the epidermis and special stains (Fontana Masson). This experiment was performed twice with 3 mice per cohort (total n=6)

In data set [9] the test system is sAC^KO mouse melanocytes. As to the kind of experiment: LysoSensor Yellow/Blue DND-160 organelle pH assay. To be noted: 30 μM, 4 hours. The data set is classed as cell-based. As to the method:
(§4) To determine the pH of the sAC^KO and sAC^FF melanocytes the pH-sensitive vital dye LysoSensor Yellow/Blue DND-160 (Bellono et al. Sci Rep., 6:26570 (2016)) was used. Briefly, cells were incubated with 1 μM LysoSensor DND-160 (Invitrogen) for 5 minutes at 37° C. Lysosensor was excited at 405 nm and its emission detected at 417-483 nm (W1) and 490-530 nm (W2). The ratio of emissions (W1/W2) in Lysosensor-stained puncta was assigned to a pH value based on a calibration curve generated for each experiment using solutions containing 125 mM KCl, 25 mM NaCl, 24 μM monensin, and varying concentrations of MES to adjust the pH to 4, 4.5, 5.0, 5.5, 6.0, 6.5, 7.0, 7.5. The fluorescence ratio was linear for pH 5.0-7.0.
as §4, with “The effect” for “To determine the pH”, “pharmacologic inhibition of sAC was examined using” for “the sAC^KO and sAC^FF melanocytes”, “vial” for “vital”, “assay, described above.” for “(Bellono et al. Sci Rep., 6:26570 (2016)) was used.”, “Briefly, cultured sAC^FF melanocytes were treated for 4 hours with 30 μM KH7, 30 μM LRE1, or control (untreated). The” for “Briefly,”

In data set [10] the test system is sAC^FF mouse melanocytes. In words: LysoSensor Yellow/Blue DND-160 organelle pH assay. The data set is classed as cell-based. To be noted: 30 μM, 4 hours. On the procedure:
as §4
as §4, with “The effect” for “To determine the pH”, “pharmacologic inhibition of sAC was examined using” for “the sAC^KO and sAC^FF melanocytes”, “vial” for “vital”, “assay, described above.” for “(Bellono et al. Sci Rep., 6:26570 (2016)) was used.”, “Briefly, cultured sAC^FF melanocytes were treated for 4 hours with 30 μM KH7, 30 μM LRE1, or control (untreated). The” for “Briefly,”

Where [11] appears, read: co-incubation with 30 μM KH7, 4 hours, cAMP analogs 500 μM, MSH 100 nM.
Where [12] appears, read: topical on back, hair removed after 3 weeks.

Turning to `O=S(=O)(NCCNC/C=C/c1ccc(Br)cc1)c1cccc2cnccc12` [H89], in the data set on PKA targeted proteins, the “phosphorylation of PKA targeted proteins” value is given as “dramatic reduction in the phosphorylation of PKA targeted proteins”. In addition, the “melanosome pH (DAMP), substance alone” value with human melanocytes [1] is “had no effect on melanosome pH”. In addition, the “effect on cAMP-dependent rescue of melanosome pH (DAMP)” value in the data set on sAC^KO mouse melanocytes [2] is recorded as “did not block the cAMP-dependent rescue of melanosome pH”. For the same compound, the “melanosome pH (DAMP uptake at HMB45 positive melanosomes), substance alone” value with sAC^FF mouse melanocytes [3] was “had no effect on melanosome pH”.
`CC(C)(C)c1cc(C(=O)C(C#N)=NNc2cccc(Cl)c2)no1` [ESI-09, 3-(5-tert-butyl-isoxazol-3-yl)-2-((3-chlorophenyl)-hydrazono)-3-oxo-propionitrile]: the eumelanin level entry in the data set with human melanocytes [4] is given as “induced an increase in eumelanin level”. Besides, the “melanosome pH (DAMP), substance alone” value in the data set with human melanocytes [1] is on record as “elevated melanosome pH”; in the data set with sAC^KO mouse melanocytes [2], “had no effect on melanosome pH”. Moreover, the “melanosome pH (DAMP uptake at HMB45 positive melanosomes), substance alone” value in the data set on sAC^FF mouse melanocytes [3] is reported as “elevated melanosome pH”.
With `CO[C@H]1C2OP(=O)(O)OC[C@H]2O[C@H]1n1c(Sc2ccc(O)cc2)nc2c(N)ncnc21` (stereo partly shown) [8-pHPT-2′-O-Me-cAMP, 8-(4-Hydroxyphenylthio)-2′-O-methyladenosine-3′, 5′-cyclic monophosphate], the “effect on KH7-induced alkaline shift in melanosome pH (DAMP)” value in the data set with human melanocytes [1] (setting [11]) and in the data set on sAC^FF mouse melanocytes [3] (setting [11]) was “mitigate the KH7-induced alkalization of melanosome pH” throughout. For the same compound, the “melanosome pH (DAMP), substance alone” value in the data set on sAC^KO mouse melanocytes [2] is “sufficient to induce melanosome acidification”.
Turning to `C[C@@H]1C[C@@H]([C@H](O)CC2CC(=O)NC(=O)C2)C(=O)[C@@H](C)C1` [cycloheximide], the “effect on cAMP-dependent rescue of melanosome pH (DAMP)” value in the data set on sAC^KO mouse melanocytes [2] is listed as “did not block the ability of cAMP to rescue pH following sAC inhibition”.
In the case of LRE1, the figures for the eumelanin levels result with sAC^KO mouse melanocytes [5] and in the data set on sAC^FF mouse melanocytes [6] were “had no effect” and “increased eumelanin levels”, respectively. Also, the “eumelanin production in hair (microscopic examination)” value in the data set on C3H/HeJ mice [7] (setting [12]) is given as “increase in eumelanin production”. The “length of the agouti (pheomelanin) band” value with C3H/HeJ mice [7] (setting [12]) is reported as “reduction in length of the agouti (pheomelanin) band”. For the same compound, the “histologic examination of treated skin” value with C3H/HeJ mice [7] (topical on back, two weeks) was “did not reveal any pathological change to the hair follicles or epidermis”. For the same compound, the “colour of regrown hair versus vehicle control” value in the data set on C3H/HeJ mice [7] (topical on epilated back, 10 μl KH7 42 mg/ml or LRE1 28 mg/ml in DMSO, three times a day over two weeks) is recorded as “visual darkening of regrown hair”. For the same compound, the “colour of ear epidermis relative to vehicle control” value with C3H/HeJ mice [8] (20 μl KH7 or LRE1 (28 mg/ml)) is “induced visual darkening of mouse ear epidermis”. Moreover, the “epidermal melanin accumulation (Fontana Masson)” value with C3H/HeJ mice [8] is on record as “increase in epidermal melanin accumulation”. Also, the results for the “pH of LysoSensor-visualized organelles” value in the data set on sAC^KO mouse melanocytes [9] and in the data set with sAC^FF mouse melanocytes [10] were “had no effect” and “induced an alkaline pH shift”, respectively.
